In general, IC50 refers to the midpoint of a concentration-inhibition curve. Higher therefore signals weaker potency in that assay.

Each structure is given as a SMILES string. Where only a bound is given, the exact number is not on record here.

The record followed here is patent publication US6753348B2, “BTK inhibitors and methods for their identification and use” (Parker Hughes Institute, priority 1998, dated 2004).

For one assay, the target named is T1, JAK3 (Homo sapiens, UniProt P52333).
T1 sequence (P52333 1-1124): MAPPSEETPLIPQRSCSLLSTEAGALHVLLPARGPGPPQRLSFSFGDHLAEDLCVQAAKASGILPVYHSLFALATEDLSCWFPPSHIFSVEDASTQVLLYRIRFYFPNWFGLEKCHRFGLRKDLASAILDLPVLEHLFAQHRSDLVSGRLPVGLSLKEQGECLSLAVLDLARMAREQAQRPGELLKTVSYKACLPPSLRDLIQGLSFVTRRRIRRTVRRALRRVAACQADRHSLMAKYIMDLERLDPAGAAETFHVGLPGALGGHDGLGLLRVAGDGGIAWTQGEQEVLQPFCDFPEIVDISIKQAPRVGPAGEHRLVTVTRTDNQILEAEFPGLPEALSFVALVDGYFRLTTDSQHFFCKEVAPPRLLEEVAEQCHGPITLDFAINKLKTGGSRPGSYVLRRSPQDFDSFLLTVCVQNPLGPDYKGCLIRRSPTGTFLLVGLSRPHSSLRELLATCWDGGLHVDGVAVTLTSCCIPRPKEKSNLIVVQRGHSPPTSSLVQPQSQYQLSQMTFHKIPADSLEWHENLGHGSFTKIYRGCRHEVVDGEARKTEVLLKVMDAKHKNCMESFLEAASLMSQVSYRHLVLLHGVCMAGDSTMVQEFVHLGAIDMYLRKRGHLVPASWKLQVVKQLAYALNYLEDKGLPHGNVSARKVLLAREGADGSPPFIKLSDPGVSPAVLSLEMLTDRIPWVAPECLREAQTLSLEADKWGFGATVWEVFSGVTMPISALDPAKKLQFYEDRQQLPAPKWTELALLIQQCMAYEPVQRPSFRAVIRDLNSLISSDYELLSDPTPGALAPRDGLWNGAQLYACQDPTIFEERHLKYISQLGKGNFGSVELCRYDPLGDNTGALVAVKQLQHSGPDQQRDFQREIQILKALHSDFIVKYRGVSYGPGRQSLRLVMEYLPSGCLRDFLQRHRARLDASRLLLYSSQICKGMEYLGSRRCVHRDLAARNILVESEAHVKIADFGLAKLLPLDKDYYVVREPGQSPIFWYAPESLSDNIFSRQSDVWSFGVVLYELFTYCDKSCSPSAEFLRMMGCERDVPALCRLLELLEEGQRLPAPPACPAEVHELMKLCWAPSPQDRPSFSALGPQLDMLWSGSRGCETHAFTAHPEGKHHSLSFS
Put plainly: Cell-free tyrosine kinase inhibition assay JAK3. Type of assay: biochemical.

For another assay, the target named is JAK1 (Homo sapiens, UniProt P23458). Nature of the assay: Cell-free tyrosine kinase inhibition assay JAK1. The format is biochemical.
Setting [1] is: concentrations as high as 100 μg/ml (~278 μM).

JAK1, sequence (P23458 whole entry, species assumed): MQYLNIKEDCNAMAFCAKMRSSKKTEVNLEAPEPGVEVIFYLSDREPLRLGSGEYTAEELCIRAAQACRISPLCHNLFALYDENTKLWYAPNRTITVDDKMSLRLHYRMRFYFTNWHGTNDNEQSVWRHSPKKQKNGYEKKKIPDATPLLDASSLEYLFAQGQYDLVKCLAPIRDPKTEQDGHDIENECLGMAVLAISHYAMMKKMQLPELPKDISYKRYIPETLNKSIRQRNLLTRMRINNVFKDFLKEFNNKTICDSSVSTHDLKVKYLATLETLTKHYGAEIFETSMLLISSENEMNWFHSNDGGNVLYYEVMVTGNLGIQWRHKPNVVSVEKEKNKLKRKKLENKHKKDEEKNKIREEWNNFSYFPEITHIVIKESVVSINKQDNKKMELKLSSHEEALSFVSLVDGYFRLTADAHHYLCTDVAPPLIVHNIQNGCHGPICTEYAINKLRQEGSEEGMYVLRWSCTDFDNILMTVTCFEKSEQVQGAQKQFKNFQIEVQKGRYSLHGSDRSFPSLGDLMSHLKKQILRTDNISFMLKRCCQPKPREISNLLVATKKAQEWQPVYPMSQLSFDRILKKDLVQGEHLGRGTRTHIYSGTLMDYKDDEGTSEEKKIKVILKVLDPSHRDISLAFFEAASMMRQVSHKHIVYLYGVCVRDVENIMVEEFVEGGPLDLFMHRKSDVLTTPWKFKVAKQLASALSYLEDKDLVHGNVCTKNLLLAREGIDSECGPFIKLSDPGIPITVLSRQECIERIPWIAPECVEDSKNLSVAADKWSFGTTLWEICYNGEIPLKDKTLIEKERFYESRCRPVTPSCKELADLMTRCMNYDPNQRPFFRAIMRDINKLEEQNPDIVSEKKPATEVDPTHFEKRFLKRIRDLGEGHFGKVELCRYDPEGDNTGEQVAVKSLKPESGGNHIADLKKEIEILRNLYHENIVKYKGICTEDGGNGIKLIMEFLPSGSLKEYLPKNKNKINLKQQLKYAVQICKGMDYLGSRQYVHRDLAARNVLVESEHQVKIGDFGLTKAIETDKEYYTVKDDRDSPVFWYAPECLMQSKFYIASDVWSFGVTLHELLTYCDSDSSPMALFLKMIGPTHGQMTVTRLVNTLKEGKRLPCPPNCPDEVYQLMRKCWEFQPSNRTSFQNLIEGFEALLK

Regarding `C/C(O)=C(\C#N)C(=O)Nc1cc(Br)ccc1Br` [LFM-A13, α-Cyano-β-hydroxy-β-methyl-N-(2,5-dibromophenyl)-propenamide], the 50% inhibitory concentration (IC50) on JAK3 and on JAK1 was above 278 µM each time. The “effect on enzymatic activity of JAK3” value at JAK3 (setting [1]) is listed as “did not affect the enzymatic activity”. Further, at JAK1 (setting [1]), the “effect on enzymatic activity of JAK1” value is “did not affect the enzymatic activity”.
